From patent publication US20090270442A1, “POLYMORPHS OF HYDROCHLORIDE SALT OF 5-(3-(ETHYLSULFONYL)PHENYL)-3,8-DIMETHYL-N-(1-METHYLPIPERIDIN-4-YL)-9H-PYRIDO[2,3-B]INDOLE-7-CARBOXAMIDE AND METHODS OF USE THEREFOR” (TAKEDA PHARMACEUTICAL COMPANY LIMITED, priority 2008, published 2009)
≈ marks a conversion by molar mass, not a printed value. Where two headings read alike, the source gives them in different places.

Columns and labels:
Type in all cases: physicochemical
[1] = Solvent screen: solubility of Compound 1 in various solvents (Table 16)
Experimental: Compound 1 as prepared by the method described in Example I may be used as the starting material for preparation of other polymorphic forms. The methods for testing the solubility of Compound 1 are described in Example 3, and the solubilities of Compound 1 in various solvents are summarized in Table 16. […] A solubility study of Compound 1 in various solvents was executed to select appropriate solvents for the further crystallizations. The material was placed in vials and the solvent was added in 250 μL portions. Solvents were picked based on differences in polarity and functionality and on their classification according to the International Conference on Harmonization (ICH), with preferences given to class II and class III solvents. After each addition of solvent, the vials were visually inspected for residual solids, and further heating to 55° C. to ensure dissolution.

[2] = Humidity chamber study at 0% and 95% RH, one week, XRPD and KF (Table 38); conditions: ambient temperature
Experimental: The 0% RH chamber was prepared with drierite and the 95% RH chamber was made with a saturated solution of Na2HPO4.12H2O in DI water. The chambers were equilibrated for >1 week prior to introducing samples. Samples were placed in Teflon-lined caps for scintillation vials and allowed to equilibrate for one week then analyzed by XRPD and KF to determine form and water content.
FIG. 60 summarizes the conversion of the forms of Compound 1 observed from slurry and humidity chamber studies.

[3] = Solubility study of Form A in DI water and 20 mM phosphate buffer (pH 3.2) (Table 37); conditions: for pH (final, 1 week): supernatant after 1 week slurry; for solubility at 1 day: read-out: Solubility mg/mL (1 day); for solubility at 1 week: read-out: Solubility mg/mL (1 week)
Experimental: The solubility measurement of Compound 1 Form A was performed in DI water (Milli-Q) and in 20 mM phosphate buffer (pH 3.2), see Table 37. Each vial was charged with 50-55 mg of Compound 1 and 1 mL of the corresponding solvent.
Both slurries were stirred at room temperature for approximately 19 hours. An aliquot (0.2 mL) was taken from each sample for the solubility determination and XRPD test. […] Both slurries were allowed to stir for an additional 6 days at room temperature. The pH of the supernatant liquid and solubility were determined following the 1 week slurry.

[4] = Moisture-sorption analysis (adsorption/desorption, then drying 1 h at 80° C. and XRPD) (Table 40); conditions: for XRPD pattern after drying: dried for one hour at 80° C.
Experimental: Moisture-sorption experiments were carried out on three forms by first drying the sample at 0% RH and 25° C. until an equilibrium weight was reached or for a maximum of four hours. The sample was then subjected to an isothermal (25° C.) adsorption scan from 10 to 90% RH in steps of 10%. The sample was allowed to equilibrate to an asymptotic weight at each point for a maximum of four hours. Following adsorption, a desorption scan from […] to 0% RH (at 25° C.) was run in steps of −10%, again allowing a maximum of four hours for equilibration to an asymptotic weight. The sample was then dried for one hour at 80° C. and the resulting solid analyzed by XRPD.

[5] = Drying study of Form A under vacuum at 40-85° C., XRPD and OVI (Table 39)
Experimental: Approximately 100 mg of sample was weighed into an individual 20-mL headspace vial and 5 mL of DMSO added. The vial was then sealed and gentle shaking/vortexing was used to ensure sample was entirely dissolved. Blank samples were prepared by transferring 5.0 mL of DMSO into a 20-mL headspace vial and then sealed. Standards were prepared using stock solutions in DMSO. Compound 1 (4.08 g, Form A) was dried under vacuum at 40° C. overnight. A small sample (˜200 mg) was taken for XRPD and OVI tests. The rest of the material was further dried under vacuum at 55° C. overnight. A second sample (˜200 mg) was taken for XRPD and OVI tests. The oven temperature was increased to 70° C. and the material was further dried under vacuum at 70° C. overnight. A third sample (˜200 mg) was taken for XRPD and OVI tests. The oven temperature was then increased to 85° C. and the material was further dried under vacuum over weekend. Analysis by XRPD and OVI was completed as shown in Table 39 along with experimental details.

[6] = Karl Fischer analysis (KF), water content; conditions: for water content by KF: theoretical for a monohydrate 3.2%
Experimental: Water content was determined by adding solid sample to the instrument with HYDRANAL-Coulomat AD. Micrograms of water were determined by coulometric titration.

[7] = 1 week slurry experiments in water, IPA, EtOAc, MeCN, EtOH and dioxane, form by XRPD (Table 34); conditions: for form after slurry in non-aqueous solvents: solvents other than water; for form after slurry in non-aqueous solvents / form isolated after slurry in water: room temperature, one week; for Form (1 wk): RT, resulting form by XRPD
Experimental: Each vial was charged with approximately 25-30 mg of API and 1 mL of the corresponding solvent, followed by stirring at room temperature for one week. […] The obtained solids were isolated by filtration, dried under vacuum at room temperature and analyzed by XRPD.

[8] = MeCN/water slurry experiments of Forms A and C at ambient temperature (Table 35); conditions: MeCN/water at different ratios
Experimental: Slurry experiments of Compound 1, Forms A and C, were conducted in mixtures of MeCN and water. Each vial was charged with approximately 40 mg of Compound 1 (pure Form A, pure Form C, or 50:50 mixtures) and 2 mL of MeCN/water mixture in a 1:9, 1:1, and 9:1 ratio. […] All samples were stirred at room temperature for approximately 24 hours. An aliquot (1 mL) of the suspension was taken from the slurries (samples #1, 3, 4, 6, 7 and 9) for determination of form by XRPD. All aliquots were filtered and dried in vacuo at 30 mm Hg and ambient temperature. All samples were stirred at ambient temperature for an additional six days, filtered, dried, and again the solid form and filterability were determined.

[9] = 20 mM phosphate buffer slurry, room temperature
[10] = DI water slurry, room temperature

SMILES: CCS(=O)(=O)c1cccc(-c2cc(C(=O)NC3CCN(C)CC3)c(C)c3[nH]c4ncc(C)cc4c23)c1.Cl [Compound 1, 5-(3-(ethylsulfonyl)phenyl)-3,8-dimethyl-N-(1-methylpiperidin-4-yl)-9H-pyrido[2,3-b]indole-7-carboxamide hydrochloride]
- solubility ([1]; 55 °C, thermodynamic from solid, solvent water, Temp 55, Soluble No, read-out: Conc.): ≤ 600 µg/mL
- solubility ([1]; in acetone, MeCN, MTBe, EtOAc, IPAc, IPA, THF, 2-Me-THF, DCM, MEK, cyclohexane, heptane and water): Poor solubility
- solubility ([1]; in dioxane, MeOH, DMF, DMA, NMP, AcOH and EtOH): Good solubility
- Soluble ([1]; solvent 2-Me-THF, 0.4 mg/mL, Temp 55): No
- Conc. ([1]; solvent 2-Me-THF, Temp 55, Soluble No): 400 µg/mL
- Soluble ([1]; solvent AcOH, >9.2 mg/mL, Temp RT): Yes
- Conc. ([1]; solvent AcOH, Temp RT, Soluble Yes): >9200 µg/mL
- Soluble ([1]; solvent Acetone, 0.3 mg/mL, Temp 55): No
- Conc. ([1]; solvent Acetone, Temp 55, Soluble No): 300 µg/mL
- Soluble ([1]; solvent Chloroform, >8.4 mg/mL, Temp RT): Yes
- Conc. ([1]; solvent Chloroform, Temp RT, Soluble Yes): >8400 µg/mL
- Soluble ([1]; solvent DCM, 0.8 mg/mL, Temp RT): No
- Conc. ([1]; solvent DCM, Temp RT, Soluble No): 800 µg/mL
- Soluble ([1]; solvent DMA, >9.2 mg/mL, Temp RT): Yes
- Conc. ([1]; solvent DMA, Temp RT, Soluble Yes): >9200 µg/mL
- Soluble ([1]; solvent DMF, >10.4 mg/mL, Temp RT): Yes
- Conc. ([1]; solvent DMF, Temp RT, Soluble Yes): >10400 µg/mL
- Soluble ([1]; solvent Dioxane, 0.7 mg/mL, Temp 55): Yes
- Conc. ([1]; solvent Dioxane, Temp 55, Soluble Yes): 700 µg/mL
- Soluble ([1]; solvent EtOAc, 0.4 mg/mL, Temp 55): No
- Conc. ([1]; solvent EtOAc, Temp 55, Soluble No): 400 µg/mL
- Soluble ([1]; solvent EtOH, 1.2 mg/mL, Temp 55): Yes
- Conc. ([1]; solvent EtOH, Temp 55, Soluble Yes): 1200 µg/mL
- Soluble ([1]; solvent Heptane, 0.4 mg/mL, Temp 55): No
- Conc. ([1]; solvent Heptane, Temp 55, Soluble No): 400 µg/mL
- Soluble ([1]; solvent IPA, 0.5 mg/mL, Temp 55): No
- Conc. ([1]; solvent IPA, Temp 55, Soluble No): 500 µg/mL
- Soluble ([1]; solvent IPAC, 0.5 mg/mL, Temp 55): No
- Conc. ([1]; solvent IPAC, Temp 55, Soluble No): 500 µg/mL
- Soluble ([1]; solvent MEK, 0.6 mg/mL, Temp 55): No
- Conc. ([1]; solvent MEK, Temp 55, Soluble No): 600 µg/mL
- Soluble ([1]; solvent MTBE, 0.3 mg/mL, Temp 55): No
- Conc. ([1]; solvent MTBE, Temp 55, Soluble No): 300 µg/mL
- Soluble ([1]; solvent MeCN, 0.5 mg/mL, Temp 55): No
- Conc. ([1]; solvent MeCN, Temp 55, Soluble No): 500 µg/mL
- Soluble ([1]; solvent MeOH, >10.0 mg/mL, Temp RT): Yes
- Conc. ([1]; solvent MeOH, Temp RT, Soluble Yes): >10000 µg/mL
- Soluble ([1]; solvent NMP, >10.4 mg/mL, Temp RT): Yes
- Conc. ([1]; solvent NMP, Temp RT, Soluble Yes): >10400 µg/mL
- Soluble ([1]; solvent THF, 0.4 mg/mL, Temp 55): No
- Conc. ([1]; solvent THF, Temp 55, Soluble No): 400 µg/mL
- Soluble ([1]; solvent Toluene, 0.4 mg/mL, Temp 55): No
- Conc. ([1]; solvent Toluene, Temp 55, Soluble No): 400 µg/mL
- Soluble ([1]; solvent c-Hexane, 0.5 mg/mL, Temp 55): No
- Conc. ([1]; solvent c-Hexane, Temp 55, Soluble No): 500 µg/mL
- Soluble ([1]; solvent water, 0.6 mg/mL, Temp 55): No

SMILES: CCS(=O)(=O)c1cccc(-c2cc(C(=O)NC3CCN(C)CC3)c(C)c3[nH]c4ncc(C)cc4c23)c1 [Form A]
- change in form upon humidity exposure ([2]; 0 and 95% RH for one week): did not show a change in form
- XRPD (1 week) [3, 9]: Form A
- XRPD (1 day) [3, 9]: Form A
- pH (final, 1 week) ([3]; 20 mM phosphate buffer): 3.3
- solubility ([3]; DI water and 20 mM phosphate buffer (pH 3.2), thermodynamic from solid, DI water and phosphate buffer slurries, after equilibration overnight and 1 week, room temperature): 3000 to 4000 µg/mL (≈ 5.94 to 7.93 mM)
- XRPD (1 week) [3, 10]: Form A
- XRPD (1 day) [3, 10]: Form A
- pH (final, 1 week) ([3]; DI water): 5.0
- solubility at 1 day ([3]; aqueous buffer, thermodynamic from solid, 20 mM phosphate buffer, initial pH 3.2, room temperature): 3.3 mg/mL (≈ 6.54 mM)
- solubility at 1 week ([3]; pH 3.2, aqueous buffer, thermodynamic from solid, 20 mM phosphate buffer, room temperature): 4.1 mg/mL (≈ 8.12 mM)
- solubility at 1 week ([3]; pH 8.1, thermodynamic from solid, DI water, room temperature): 4.3 mg/mL (≈ 8.52 mM)
- solubility at 1 day ([3]; thermodynamic from solid, DI water, initial pH 8.1, room temperature): 3.1 mg/mL (≈ 6.14 mM)
- stability of the hydrate over relative humidity (moisture sorption curve) ([4]; 25° C.): stable from 5 to 90% RH
- maximum moisture uptake ([4]; at 90% RH, 25° C.): 4.2 wt %
- XRPD pattern after drying [4]: consistent with Form A
- Residual Amt of MeCN by OVI (ppm) ([5]; dried under vacuum at 40° C., time at temperature 16): 1353 ppm
- Residual Amt of MeCN by OVI (ppm) ([5]; dried under vacuum at 55° C., time at temperature 24 (total 40)): 1303 ppm
- Residual Amt of MeCN by OVI (ppm) ([5]; dried under vacuum at 70° C., time at temperature 24 (total 64)): 1113 ppm
- Residual Amt of MeCN by OVI (ppm) ([5]; dried under vacuum at 85° C., time at temperature 72 (total 136)): 670 ppm
- water content by KF after heating ([6]; another sample, after heating): 3.0%
- water content by KF before heating ([6]; another sample, before heating): 3.1%
- water content by KF [6]: 3.7%

SMILES: CCS(=O)(=O)c1cccc(-c2cc(C(=O)NC3CCN(C)CC3)c(C)c3[nH]c4ncc(C)cc4c23)c1 [Form C]
- form after humidity exposure ([2]; 95% RH for one week): converted to Form A
- hygroscopicity (moisture sorption curve) ([4]; 25° C.): slightly hygroscopic
- hysteresis upon desorption ([4]; 25° C.): not observed
- maximum water uptake ([4]; at 90% RH, 25° C.): 1.9%
- XRPD pattern after drying [4]: consistent to the starting form
- form after slurry in non-aqueous solvents [7]: stable anhydrate form in non-aqueous environments
- form isolated after slurry in water [7]: converted to the monohydrate Form A
- form after acetonitrile/water slurries [8]: converted to the monohydrate Form A
- water content by KF [6]: 1.4%

SMILES: CCS(=O)(=O)c1cccc(-c2cc(C(=O)NC3CCN(C)CC3)c(C)c3[nH]c4ncc(C)cc4c23)c1 [Form L]
- hygroscopicity (moisture sorption curve) ([4]; 25° C.): moderately hygroscopic
- hysteresis upon desorption ([4]; 25° C.): not observed
- maximum water uptake ([4]; at 90% RH, 25° C.): 3.9%
- XRPD pattern after drying [4]: same pattern before and after drying
- form after slurry in non-aqueous solvents [7]: to the anhydrate Form C
- form isolated after slurry in water [7]: convert to the monohydrate Form A
- water content by KF [6]: 2.9%

SMILES: CCS(=O)(=O)c1cccc(-c2cc(C(=O)NC3CCN(C)CC3)c(C)c3[nH]c4ncc(C)cc4c23)c1 [Form N]
- Form (1 wk) ([7]; 1 week slurry in Dioxane (1.0 mL)): C + P
- Form (1 wk) ([7]; 1 week slurry in EtOAc (1.0 mL)): C + P
- Form (1 wk) ([7]; 1 week slurry in IPA (1.0 mL)): C + P
- form isolated after slurry in water [7]: Form A
